Among the data in US11267825B2 (AICURIS GMBH & CO. KG, priority 2017, dated 2022) are EC50 and IC50 values, retold here.

Read-outs that look alike come from different tables or passages of the source.

The test system of one experiment is HBV. Put plainly: Determination of HBV DNA from the supernatants of HepAD38 cells (anti-HBV activity). In kind it is cell-based, hepatitis B virus. Conditions: Hepatitis B virus, read-out: Cell Activity (EC50). In short, it runs like this: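 EC50 values were obtained by non-linear regression of HBV DNA copy numbers measured by qPCR against pCH-9/3091 plasmid standards. The DNA came from filtered supernatants collected on day 6. Before that, tetracycline-withdrawn HepAD38 cells had been exposed to serial half-log compound dilutions, with tetracycline-treated cells as the non-producing control.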

In another experiment the target is HBV core protein (UniProt P03146). The experiment is classed as biochemical. Conditions: read-out: Assembly Activity (IC50); BODIPY-FL labelled core protein, assembly started with NaCl, read after 6 min. In outline:
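Compounds tested at 8 concentrations in 0.5-log steps from 100, 31.6 or 10 μM against 1.0–2.0 μM BODIPY-FL-labelled Cys150 core dimers (residues 1–149), 50 mM HEPES pH 7.5. NaCl ([…] final) triggered assembly; quenching read at 6 min, 477/525 nm, with 2.5 M and 0 M NaCl as controls; EC50 by nonlinear fit.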

Where [1] appears, read: 144 h, HBV DNA in HepAD38 supernatant at day 6.

HBV core protein, sequence (P03146 whole entry, looked up, the tested form may be a part): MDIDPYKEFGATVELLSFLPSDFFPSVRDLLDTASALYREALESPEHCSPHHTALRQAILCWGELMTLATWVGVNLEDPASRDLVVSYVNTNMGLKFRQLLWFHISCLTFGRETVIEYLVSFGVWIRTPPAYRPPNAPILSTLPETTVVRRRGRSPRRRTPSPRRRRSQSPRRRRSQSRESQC

In the case of `O=C(c1cc2ccccc2[nH]1)N1CCc2nc(NC[C@H]3CCCC[C@@H]3O)sc2C1` [Example 288, (1S,2R)-2-({[5-(1H-indole-2-carbonyl)-4H,5H,6H,7H-[1,3]thiazolo[5,4-c]pyridin-2-yl]amino}methyl)cyclohexan-1-ol], the EC50 with HBV (setting [1]) was less than 1 µM. Besides, the IC50 at HBV core protein was 5 to 10 µM.

Regarding `CC1(C)CC1C(=O)Nc1nc2c(s1)CN(C(=O)c1cc3ccccc3[nH]1)CC2` (centres unmarked) [Example 267, N-[5-(1H-indole-2-carbonyl)-4H,5H,6H,7H-[1,3]thiazolo[5,4-c]pyridin-2-yl]-2,2-dimethylcyclopropane-1-carboxamide], in the experiment on HBV (setting [1]), the EC50 was less than 1 µM. In addition, at HBV core protein, the IC50 lay in the range of 5 to 10 µM.

Turning to `O=C(CC1CCOCC1)Nc1nc2c(s1)CN(C(=O)c1cc3ccccc3[nH]1)CC2` [Example 20, N-[5-(1H-indole-2-carbonyl)-4H,5H,6H,7H-[1,3]thiazolo[5,4-c]pyridin-2-yl]-2-(oxan-4-yl)acetamide], the half-maximal effective concentration (EC50) in the experiment with HBV (setting [1]) was less than 1 µM. Moreover, at HBV core protein, the 50% inhibitory concentration (IC50) was less than 5 µM.

For `O=C(c1cc2ccccc2[nH]1)N1CCc2nc(NCC3(O)CC3)sc2C1` [Example 405, 1-({[5-(1H-indole-2-carbonyl)-4H,5H,6H,7H-[1,3]thiazolo[5,4-c]pyridin-2-yl]amino}methyl)cyclopropan-1-ol], in the experiment with HBV (setting [1]), the EC50 is less than 1 µM. On HBV core protein, the IC50 is less than 5 µM.

Turning to `CNC(=O)Nc1nc2c(s1)CN(C(=O)c1cc3ccccc3[nH]1)CC2` [Example 28, 1-[5-(1H-indole-2-carbonyl)-4H,5H,6H,7H-[1,3]thiazolo[5,4-c]pyridin-2-yl]-3-methylurea], the EC50 in the experiment with HBV (setting [1]) is less than 1 µM. Further, the IC50 at HBV core protein was less than 5 µM.

As to `CC(CO)CNc1nc2c(s1)CN(C(=O)c1cc3ccccc3[nH]1)CC2` (centres unmarked) [Example 217, 3-{[5-(1H-indole-2-carbonyl)-4H,5H,6H,7H-[1,3]thiazolo[5,4-c]pyridin-2-yl]amino}-2-methylpropan-1-ol], the EC50 with HBV (setting [1]) was less than 1 µM. Also, the IC50 on HBV core protein was less than 5 µM.

Regarding `O=C(c1cc2ccccc2[nH]1)N1CCc2nc(NCC3(CO)CCC3)sc2C1` [Example 27, [1-({[5-(1H-indole-2-carbonyl)-4H,5H,6H,7H-[1,3]thiazolo[5,4-c]pyridin-2-yl]amino}methyl)cyclobutyl]methanol], the EC50 with HBV (setting [1]) was less than 1 µM. Also, the IC50 on HBV core protein was less than 5 µM.

As to `CC(Nc1nc2c(s1)CN(C(=O)c1cc3ccccc3[nH]1)CC2)C(F)(F)F` (centres unmarked) [Example 22, 5-(1H-indole-2-carbonyl)-N-(1,1,1-trifluoropropan-2-yl)-4H,5H,6H,7H-[1,3]thiazolo[5,4-c]pyridin-2-amine], in the experiment on HBV (setting [1]), the EC50 was less than 1 µM. At HBV core protein, the IC50 was less than 100 µM.

In the case of `CC(O)CNc1nc2c(s1)CN(C(=O)c1cc3ccccc3[nH]1)CC2` (stereo in doubt) [Example 131, (2S)-1-{[5-(1H-indole-2-carbonyl)-4H,5H,6H,7H-[1,3]thiazolo[5,4-c]pyridin-2-yl]amino}propan-2-ol], the EC50 in the experiment with HBV (setting [1]) was less than 1 µM. Further, at HBV core protein, the IC50 was less than 5 µM.

Turning to `O=C(c1cc2ccccc2[nH]1)N1CCc2nc(NC3CCOC3)sc2C1` (centres unmarked) [Example 180, 5-(1H-indole-2-carbonyl)-N-(oxolan-3-yl)-4H,5H,6H,7H-[1,3]thiazolo[5,4-c]pyridin-2-amine], the concentration for a half-maximal effect (EC50) in the experiment with HBV (setting [1]) is less than 1 µM. Besides, the half-inhibitory concentration (IC50) at HBV core protein is less than 5 µM.

Consider `CC(O)CNc1nc2c(s1)CN(C(=O)c1cc3ccccc3[nH]1)CC2` (centres unmarked) [Example 178, 1-{[5-(1H-indole-2-carbonyl)-4H,5H,6H,7H-[1,3]thiazolo[5,4-c]pyridin-2-yl]amino}propan-2-ol], for which the EC50 in the experiment with HBV (setting [1]) was less than 1 µM. Moreover, the IC50 at HBV core protein is less than 5 µM.

Consider `CC(O)c1cccc2[nH]c(C(=O)N3CCc4nc(N)sc4C3)cc12` (centres unmarked) [Example 10, 1-(2-{2-amino-4H,5H,6H,7H-[1,3]thiazolo[5,4-c]pyridine-5-carbonyl}-1H-indol-4-yl)ethan-1-ol], for which the EC50 in the experiment with HBV (setting [1]) fell in the range of 1 to 10 µM. Also, the IC50 on HBV core protein was less than 100 µM.

On to `O=C(c1cc2ccccc2[nH]1)N1CCc2nc(NCC3(O)CCOC3)sc2C1` (centres unmarked) [Example 253, 3-({[5-(1H-indole-2-carbonyl)-4H,5H,6H,7H-[1,3]thiazolo[5,4-c]pyridin-2-yl]amino}methyl)oxolan-3-ol], for which the concentration for a half-maximal effect (EC50) in the experiment with HBV (setting [1]) is less than 1 µM. The IC50 at HBV core protein is less than 5 µM.

Consider `O=C(c1cc2ccc(Cl)cc2[nH]1)N1CCc2nc(NCC3(O)CCC3)sc2C1` [Example 331, 1-({[5-(6-chloro-1H-indole-2-carbonyl)-4H,5H,6H,7H-[1,3]thiazolo[5,4-c]pyridin-2-yl]amino}methyl)cyclobutan-1-ol], for which, in the experiment on HBV (setting [1]), the EC50 was less than 1 µM. On HBV core protein, the IC50 lay within 5 to 10 µM.

As for `O=C(c1cc2ccccc2[nH]1)N1CCc2nc(NC3(c4ccccc4)CC3)sc2C1` [Example 419, 5-(1H-indole-2-carbonyl)-N-(1-phenylcyclopropyl)-4H,5H,6H,7H-[1,3]thiazolo[5,4-c]pyridin-2-amine], in the experiment on HBV (setting [1]), the EC50 was less than 1 µM. The IC50 at HBV core protein fell in the range of 5 to 10 µM.

Consider `CC(C)c1cccc2[nH]c(C(=O)N3CCc4nc(N)sc4C3)cc12` [Example 12, 5-[4-(propan-2-yl)-1H-indole-2-carbonyl]-4H,5H,6H,7H-[1,3]thiazolo[5,4-c]pyridin-2-amine], for which the EC50 with HBV (setting [1]) was less than 1 µM. In addition, the IC50 at HBV core protein is less than 5 µM.

In the case of `O=C(c1cc2ccccc2[nH]1)N1CCc2nc(NCC3CCC3)sc2C1` [Example 418, N-(cyclobutylmethyl)-5-(1H-indole-2-carbonyl)-4H,5H,6H,7H-[1,3]thiazolo[5,4-c]pyridin-2-amine], the EC50 in the experiment with HBV (setting [1]) is less than 1 µM. At HBV core protein, the IC50 lay in the range of 5 to 10 µM.

Consider `N#Cc1ccc2cc(C(=O)N3CCc4nc(N)sc4C3)[nH]c2c1` [Example 17, 2-{2-amino-4H,5H,6H,7H-[1,3]thiazolo[5,4-c]pyridine-5-carbonyl}-1H-indole-6-carbonitrile], for which, in the experiment on HBV (setting [1]), the EC50 was 1 to 10 µM. The IC50 at HBV core protein is less than 100 µM.

For `O=C(Nc1nc2c(s1)CN(C(=O)c1cc3ccccc3[nH]1)CC2)C1CCC(O)CC1` (centres unmarked) [Example 411, 4-hydroxy-N-[5-(1H-indole-2-carbonyl)-4H,5H,6H,7H-[1,3]thiazolo[5,4-c]pyridin-2-yl]cyclohexane-1-carboxamide], the EC50 in the experiment on HBV (setting [1]) was less than 1 µM. Further, on HBV core protein, the IC50 was less than 5 µM.

As for `Cc1cc(F)cc2[nH]c(C(=O)N3CCc4nc(N[C@H]5CC[C@@H](O)CC5)sc4C3)cc12` [Example 303, (1s,4s)-4-{[5-(6-fluoro-4-methyl-1H-indole-2-carbonyl)-4H,5H,6H,7H-[1,3]thiazolo[5,4-c]pyridin-2-yl]amino}cyclohexan-1-ol], in the experiment with HBV (setting [1]), the EC50 was less than 1 µM. The IC50 on HBV core protein is less than 5 µM.

Regarding `CC(C)OC(=O)[C@H](C)NP(=O)(OCC1(CNc2nc3c(s2)CN(C(=O)c2cc4c(F)cc(F)cc4[nH]2)CC3)CC1)Oc1ccccc1` (stereo partly drawn) [Example 37, Propan-2-yl (2S)-2-[({[1-({[5-(4,6-difluoro-1H-indole-2-carbonyl)-4H,5H,6H,7H-[1,3]thiazolo[5,4-c]pyridin-2-yl]amino}methyl)cyclopropyl]methoxy}(phenoxy)phosphoryl)amino]propanoate], the EC50 with HBV (HePAD38, 144 h) is less than 1 µM. In addition, the IC50 at HBV core protein is less than 100 µM.

Consider `CCc1ccc(F)c2[nH]c(C(=O)N3CCc4nc(NCC5CCOC5)sc4C3)cc12` (centres unmarked) [Example 254, 5-(4-ethyl-7-fluoro-1H-indole-2-carbonyl)-N-[(oxolan-3-yl)methyl]-4H,5H,6H,7H-[1,3]thiazolo[5,4-c]pyridin-2-amine], for which the EC50 with HBV (setting [1]) is less than 1 µM. Also, the IC50 at HBV core protein is less than 5 µM.

As to `O=C(c1cc2c(C(F)F)cccc2[nH]1)N1CCc2nc(NCC3(O)CCC3)sc2C1` [Example 408, 1-[({5-[4-(difluoromethyl)-1H-indole-2-carbonyl]-4H,5H,6H,7H-[1,3]thiazolo[5,4-c]pyridin-2-yl}amino)methyl]cyclobutan-1-ol], the EC50 in the experiment with HBV (setting [1]) is less than 1 µM. In addition, the IC50 on HBV core protein is less than 5 µM.

Turning to `CC(F)(F)c1cc(F)cc2[nH]c(C(=O)N3CCc4nc(NC(=O)C5CCOCC5)sc4C3)cc12` [Example 401, N-{5-[4-(1,1-difluoroethyl)-6-fluoro-1H-indole-2-carbonyl]-4H,5H,6H,7H-[1,3]thiazolo[5,4-c]pyridin-2-yl}oxane-4-carboxamide], the EC50 with HBV (setting [1]) was less than 1 µM. In addition, the IC50 at HBV core protein was less than 5 µM.

Turning to `O=C(c1cc2c(F)cc(F)cc2[nH]1)N1CCc2nc(NCCO)sc2C1` [Example 111, 2-{[5-(4,6-difluoro-1H-indole-2-carbonyl)-4H,5H,6H,7H-[1,3]thiazolo[5,4-c]pyridin-2-yl]amino}ethan-1-ol], in the experiment with HBV (setting [1]), the EC50 is less than 1 µM. Besides, the IC50 at HBV core protein is less than 5 µM.

With `Nc1nc2c(s1)CN(C(=O)c1cc3ccc(F)cc3[nH]1)CC2` [Example 197, 5-(6-fluoro-1H-indole-2-carbonyl)-4H,5H,6H,7H-[1,3]thiazolo[5,4-c]pyridin-2-amine], the EC50 with HBV (setting [1]) was less than 1 µM. On HBV core protein, the half-maximal inhibitory concentration (IC50) was less than 5 µM.

With `CC(C)(C)CC(=O)Nc1nc2c(s1)CN(C(=O)c1cc3ccccc3[nH]1)CC2` [Example 26, N-[5-(1H-indole-2-carbonyl)-4H,5H,6H,7H-[1,3]thiazolo[5,4-c]pyridin-2-yl]-3,3-dimethylbutanamide], the EC50 with HBV (setting [1]) is less than 1 µM. Also, the IC50 on HBV core protein is 5 to 10 µM.

As for `O=C(c1cc2c(Cl)cccc2[nH]1)N1CCc2nc(NCC3CCOC3)sc2C1` (centres unmarked) [Example 121, 5-(4-chloro-1H-indole-2-carbonyl)-N-[(oxolan-3-yl)methyl]-4H,5H,6H,7H-[1,3]thiazolo[5,4-c]pyridin-2-amine], the EC50 in the experiment with HBV (setting [1]) was less than 1 µM. Further, the IC50 on HBV core protein was less than 5 µM.
